Where a name gives a salt, the structure may show the parent alone. Marks after values point to notes of the source that are not given here.
Tested on: scopolamine-induced impairment of passive avoidance response
Experiment: passive avoidance test, scopolamine-induced impairment
Format: in vivo, Male Sprague Dawley rats
Experimental: Male Sprague Dawley rats weighing 175-200 g were used. The animals were kept in a regulated environment (20 ± 1°C, 50-55% humidity and 12 hours light-dark cycle, light on at 7.00 a.m.) and maintained with standard pellet diet. The apparatus used for the passive avoidance test was composed of a dark compartment (30x30x30 cm) with a grid floor and a compartment (30x30x30 cm) illuminated from above by a 20 W daylight lamp, the 2 compartments being separated by a guillotine-type door (10x8 cm). Scrambled electric shocks were delivered to the grid floor by an isolated stimulator.
Rats were divided in groups of 10 animals. • a) Training: each rat was placed gently in the lighted compartment and 10 sec later the door was opened. As soon as the rat had moved into the dark compartment and the door had been shut, a 1.6 mA foot-shock was applied for 1 sec. The rat was immediately removed from the apparatus and returned to the home cage. • b) Retention: the retention test was carried out 24 hours later by an observer unaware of the given treatment. Each rat was placed into the lighted compartment again and the step-through latency was recorded. The test is stopped when the rat enters the dark compartment or when it fails to do so in […] 180 sec.

[1] = step-through latency in retention test 24 hours after training, test compound 0.03 mg/kg i.p. 15 min before scopolamine 0.75 mg/kg i.p., which was given 30 min before training, mean ± S.E.M, 10 animals, cut-off 180 sec

CN1[C@@H]2CC[C@H]1C[C@@H](NC(=O)n1c(=O)[nH]c3ccccc31)C2 [Compound 1, N-(endo-8-methyl-8-azabicyclo[3.2.1]oct-3-yl)-2,3-dihydro-2-oxo-1H-benzimidazole-1-carboxamide]
LATENCY (step-through latency in retention test 24 hours after training, test compound 0.01 mg/kg i.p. 15 min before scopolamine 0.75 mg/kg i.p., which was given 30 min before training, mean ± S.E.M, 10 animals, cut-off 180 sec): 136 ± 16.0 s
LATENCY [1]: 109 ± 17.0 s

CCn1c(=O)n(C(=O)N[C@H]2C[C@H]3CC[C@@H](C2)N3C)c2ccccc21 [Compound 5, N-(endo-8-methyl-8-azabicyclo[3.2.1]oct.-3-yl)-2,3-dihydro-3-ethyl-2-oxo-1H-benzimidazole-1-carboxamide]
LATENCY [1]: 113 ± 17.0 s

CC(C)n1c(=O)n(C(=O)N[C@H]2C[C@H]3CC[C@@H](C2)N3C)c2ccccc21 [Compound 6, N-(endo-8-methyl-8-azabicyclo[3.2.1]oct.-3-yl)-2,3-dihydro-3-(1-methyl)ethyl-2-oxo-1H-benzimidazole-1-carboxamide, hydrochloric acid salt]
LATENCY (SEC) [1]: 140 + 16 ** SEC

CN1[C@@H]2C[C@@H](OC(=O)[C@H](CO)c3ccccc3)C[C@H]1[C@@H]1O[C@@H]12 [Scopolamine, scopolamine, reference compound]
LATENCY (rat, in vivo, ip, 0.75 mg/kg): 66 ± 18.7 s

— patent EP0523013B1, “Use of benzimidazoline-2-oxo-1-carboxylic acid derivatives in the treatment of organic mental diseases” (BOEHRINGER INGELHEIM ITALIA S.p.A., priority 1991, dated 1993)
